≈ marks a conversion by molar mass, not a printed value. Like-named read-outs stand apart in the source and are kept apart here.
What was measured:
[1] = system: ticks, fleas, and mosquitos; assay: Bioassay of Example 2 on ticks, fleas and mosquitos (Examples 4 and 6); type: in vivo
Protocol: (§1) Samples of the compounds listed below Were obtained from Dr. Karchesy, a co-inventor, and screened for biocidal activities against nymphal Ixodes scapularis. In this example, 2% acetone solutions (wt./vol.) of the compounds were applied to inner surfaces of 2-dram friction cap vials. Vials and caps were treated then allowed to dry for a minimum of 4 hours before placing 10 nymphs in each container. These same vials were used to challenge additional nymphs and adult I. scapularis ticks and adult Xenopsylla cheopis fleas through five weeks to observe any possible residual activity.
Nootkatol was tested using the bioassay presented in Example 2.
Two nootkatone samples were compared to nootkatone isolated from Alaska yellow cedar using the method presented in Example 1. The first sample was a natural extract of nootkatone taken from grapefruit oil purchased commercially. The second sample was a synthetically produced nootkatone purchased commercially.
Both samples were compared to the nootkatone originating from Alaska yellow cedar in terms of their biocidal activities. Using a bioassay method similar to that presented in Example 2, no differences were discernible among the nootkatone samples in terms of their biocidal effect on ticks, fleas and mosquitos.

I. scapularis nymphs = assay: Tick bioassay, modified disposable pipette method, treated vials (Example 9); type: in vivo, Ixodes scapularis; settings: 24 h exposure, 95% CI in parentheses
Protocol: Tick Colonies. […] There was no known pesticide used at this location. Ticks were maintained at 21° C., 90% RH, and received a 16:8 h (light:dark) cycle as described in […]. Med. […] Tick and Flea Bioassays. […] A control treated with acetone only was run with each series. Tick and flea susceptibility was evaluated using a modified disposable pipette method. See, Barnard, D. R., et al., J. Econ. […] Three to 4 holes were made in the plastic cap to allow for air exchange. Nymphal ticks and adult fleas were then placed directly into the vials using forceps. Vials containing ticks or fleas were placed in desiccators for 24 h at 21° C. and 90% RH. […] For each time point, if ticks were incapable of movement, maintaining normal posture, leg coordination, ability to right themselves, or any signs of life, they were considered moribund or dead.

X. cheopis adults = assay: Flea bioassay, treated vials (Example 9); type: in vivo; settings: 24 h exposure, 95% CI in parentheses
Protocol: Flea Colonies. Adult X. cheopis fleas (1–3 wk old) were obtained from a colony founded more than eight years ago using adults received from Tom Schwan, Rocky Mountain Laboratories, Hamilton, Mont. The area from which these original adult fleas were obtained, and the resulting colony, have no known histories of pesticide exposure.
Tick and Flea Bioassays. Concentrations of the compounds were prepared by 2-fold serial dilutions of a 0.5% (wt:vol) solution of the extracts in acetone. […] A control treated with acetone only was run with each series. Tick and flea susceptibility was evaluated using a modified disposable pipette method. See, Barnard, D. R., et al., J. Econ. Entomol.
The inner surface of 2-dram friction cap vials were treated with the compound/acetone solution, or acetone only as a control, and left to air-dry overnight. Three to 4 holes were made in the plastic cap to allow for air exchange. Nymphal ticks and adult fleas were then placed directly into the vials using forceps. Vials containing ticks or fleas were placed in desiccators for 24 h at 21° C. and 90% RH. Morbidity and mortality was recorded at 1, 2, 4, 8, and 24 h after initial exposure.

Ae. aegypti adults = assay: Mosquito bottle bioassay (Example 9); type: in vivo; settings: 24 h exposure, 95% CI in parentheses
Protocol: Mosquito Colonies. Aedes aegypti adult mosquitoes were obtained from an existing colony at the Centers for Disease Control and Prevention (CDC), Division of Vector-Borne Infectious Diseases (DVBID), Fort Collins, Colo. This colony has been maintained for over fifteen years with no known history of exposure to pesticides. Mosquitoes were reared at 28° C., 85% RH, and a 14:10 h (light:dark) cycle. Larvae were grown in de-ionized water and fed ground liver powder solution ad libitum. Fourth instars were removed and placed in emergence cages, and adults were fed a 2% sucrose solution until assayed. Adults were exposed to test products at 4–7 d after emergence.
Mosquit Bioassay. Adult mosquitoes were tested using the bottle bioassay method of Brogden, W. G., and McAllister, J. C., J. Am. Mosq. Control Assoc. 14:159–64 (1998), with minor modifications. Natural product extracts were two-fold serially diluted for a total of 8 concentrations ranging from 0.002% to 0.25% in 1.5 ml of acetone. Individual dilutions were added to 250 ml Wheaton glass bottles and capped. Bottles were manipulated to evenly coat all inner surfaces. The caps were removed and bottles were allowed to air-dry overnight. Once bottles were completely dry, 10–50 adult mosquitoes were aspirated into the bottles. Mosquitoes were held in the bottles for 24 h at 23° C. and 85% RH. Morbidity and mortality were recorded at 15, 30, 45, and 60 min and 24 hour intervals. One bottle for each replicate was treated with acetone only and served as a control. The dose-mortality data was evaluated with probit analysis, using the LdP Line software, to determine LC50 and LC90 values.

[2] = system: nymphal Ixodes scapularis; assay: Treated-vial biocidal screening, 2% acetone solutions (Example 2); type: in vivo; settings: for I. scapularis nymphs (24 h), number killed/number tested: 2% acetone solution (wt./vol.) dried in vials; for I. scapularis nymphs (72 h), number killed/number tested: treated vials sat 72 h, arthropods added for final 24 h
Protocol: as §1
(§2) Numbers in parentheses refer to length of treatment in terms of hours (h) or weeks (wk). Data is presented in terms of number killed/number tested. For test periods longer than 24 hours, the treated vials were allowed to sit for the stated period after drying (72 h, 4 wk, or 5 wk) and each group of arthropods was added to the vials for the final 24 h of the test period.

[3] = system: adult I. scapularis ticks; assay: Treated-vial biocidal screening, residual challenge (Example 2); type: in vivo, Ixodes scapularis; settings: treated vials sat 4 wk; arthropods added for final 24 h
Protocol: as §1, §2

[4] = system: adult Xenopsylla cheopis fleas; assay: as above; type: in vivo; settings: treated vials sat 5 wk; arthropods added for final 24 h
Protocol: as §1, §2

[5] = system: ticks, fleas, formicids and termites; assay: Persistence of biocidal activity, vials treated with 2% solutions (Example 5); type: in vivo
Protocol: as §1
Persistence of biocidal activity was determined for nootkatone and valencene-11,12-epoxide by using the vials as treated with the 2% solutions of Example 2. […] At 11 weeks, the biocidal activity began to dissipate below the 100% mortality level.

nymphal I. scapularis = assay: Baseline dose-mortality, method of Maupin and Piesman 1994 (Example 7); type: in vivo; settings: nymphal ticks
Text: Baseline dose-mortalities were established for nymphal I. scapularis for nootkatone and valencene-11,12-epoxide using the method described in Maupin, G. O., and Piesman, J., J. Med. Entomol., 31:319–21 (1994).
A comparison of relative potency was made with published data for carbaryl and permethrin (Maupin and Piesman, 1994) and Alaska yellow cedar essential oil (Panella et al., J. Med. Entomol. 34:340–45 (1997) is presented in Table 6.

Culex p. pipiens = assay: Mosquito susceptibility, serial dilutions (Example 8); settings: in vivo
Aedes aegypti = assay: Mosquito susceptibility (Example 8); settings: in vivo
[6] = system: I. scapularis nymphs, X. cheopis adults, and Ae. aegypti adults; assay: Initial screening against all three arthropods (Example 9); type: in vivo; settings: 24 hours exposure; ticks, fleas, mosquitoes
Protocol: Valencene-13-aldehyde was prepared by oxidation of valencene with SeO2. […] Commercial samples of nootkatone for comparison were obtained from Bedoukian Research, Inc., Danbury, Conn. (semi-synthetic crystalline) and Frutarom, Inc. N.J. (from grapefruit oil). […] The compounds identified by an asterisk—nos.

Aedes aegypti adults = assay: Treated-vial bioassay on mosquito (Example 3); type: in vivo; settings: 24 hours challenge
Protocol: as §1
Using a bioassay method similar to that presented in Example #2, the susceptibility of Aedes aegypti adults to the five compounds presented in Example #2 at 24 hours challenge was determined to be 100% mortality except for nootkatin (20% mortality).

## C=C(C)[C@@H]1CCC2=C[C@@H](O)C[C@@H](C)[C@]2(C)C1 [Compound 12, Nootkatol]
[1]
  biocidal activity compared with nootkatene: essentially equivalent to the activity of nootkatene
I. scapularis nymphs
  LC50: 0.023 (0.017–0.03) percent concentration, wt:vol
  LC90: 0.059 (0.042–0.116) percent concentration, wt:vol
I. scapularis nymphs; listed as compound 12
  LC50: 0.023 percent concentration, wt:vol
X. cheopis adults
  LC50: 0.024 (0.018–0.034) percent concentration, wt:vol
  LC90: 0.1 (0.065–0.196) percent concentration, wt:vol
X. cheopis adults; listed as compound 12
  LC50: 0.024 percent concentration, wt:vol
Ae. aegypti adults
  LC50: 0.004 (0.0032–0.0048) percent concentration, wt:vol
  LC90: 0.01 (0.008–0.014) percent concentration, wt:vol
Ae. aegypti adults; listed as compound 12
  LC50: 0.004 percent concentration, wt:vol

## C[C@@H]1CCC=C2CCC(C3(C)CO3)C[C@]21C (some centres unmarked) [Compound 13, valencene-11,12-epoxide]
[2]
  I. scapularis nymphs (24 h), number killed/number tested: 10/10
  I. scapularis nymphs (72 h), number killed/number tested: 5/5
[3]
  I. scapularis adults (4 wk), number killed/number tested: 5/5
[4]
  X. cheopis adults (5 wk), number killed/number tested: 5/5
[5]; 24 hour exposure at each test through 10 weeks, each group of arthropods
  mortality: 100%
[5]; vials treated with 2% solutions
  time at which biocidal activity began to dissipate below the 100% mortality level: 11 weeks
Nymphal I. scapularis
  more effective than essential oil of Alaska yellow cedar: about 98%
  potency relative to essential oil of Alaska yellow cedar: approximately 50 times
Culex p. pipiens
  C. pipiens LD50: <4.5 × 10^−3
  mortality rate at the lowest tested dosage: 64%
Aedes aegypti
  A. aegypti LD50: <4.5 × 10^−3
Ae. aegypti adults; Aedes aegypti, 24 h, read-out: LC50
  LC50: 2.95 mg/mL (≈ 13.4 mM)
Ae. aegypti adults; Aedes aegypti, 24 h, read-out: LC90 (the source's name)
  EC90: 19.1 mg/mL (≈ 86.7 mM)

## COc1cc(C(C)C)ccc1C [Compound 3, Methyl carvacrol]
[6]
  pesticidal activity in initial screening: no pesticidal activity

## CC1=CCC(O)(C(C)C)CC1 (centres unmarked) [Compound 2, Terpinen-4-ol]
[6]
  pesticidal activity in initial screening: no pesticidal activity

## CC(C)=CCc1ccc(O)c(=O)cc1C(C)C [Compound 11, Nootkatin]
[2]
  I. scapularis nymphs (24 h), number killed/number tested: 1/10
  I. scapularis nymphs (72 h), number killed/number tested: 0/5
[3]
  I. scapularis adults (4 wk), number killed/number tested: 0/5
[4]
  X. cheopis adults (5 wk), number killed/number tested: 0/5
Aedes aegypti adults
  mortality: 20%
Ae. aegypti adults
  LC50: 0.852 percent concentration, wt:vol
  LC90: 7.869 percent concentration, wt:vol
